From patent US20250114331A1, “CONCURRENT TARGETING OF ONCOGENIC PATHWAYS TO ENHANCE CHEMOTHERAPY AND IMMUNOTHERAPY” (THE JOHNS HOPKINS UNIVERSITY, priority 2021, published 2025)
Entries after “also recorded” stand apart in the source; their conditions may differ. Read-outs that look alike come from different tables or passages of the source.

Legend:
MB49, UPPL595 and BBN975 = experiment: FABP4 expression and lipid droplet quantification after VP, mouse UCB cell lines; type: cell-based
Method: RNA extraction and quantitative reverse transcriptase polymerase chain reaction (Q-RT-PCR). Total RNA from cell lines was isolated using the RNeasy Plus Mini Kit (Qiagen, Germantown, USA), according to the manufacturer's protocol. This total RNA was converted to cDNA using the SuperScript III First-Strand Synthesis System (Life technologies, Carlsbad, USA), which was then used as a template for qRT-PCR. qRT-PCR was performed using the Fast SYBR Green Master Mix (Thermo Fisher Scientific, Waltham, USA) on a Quant studio 6 Fast Real-Time PCR System (Life technologies) in triplicate. SDS software (Applied Biosystems) was used to determine cycle threshold (Ct) values. The expression levels were quantified relative to β-actin using the 2-ΔΔCt method. YAP1 influences the accumulation of lipid droplets in cancer cells. […] Therefore, apart from investigating the altered regulation of intracellular signaling cascades, the present inventors also studied cellular metabolism in response to YAP1 modulation. […] It was reported that FABP4 is a critical molecule in accumulation of lipid droplets in the intracellular compartments (45). […] As increased amount of L-lactate correlated with more glycolysis and poor prognosis of cancer (46), the present inventors quantified L-lactate in mouse and human UCB cells with YAP1 modulation.

H1299 xenografts = experiment: H1299 xenograft treatment; type: in vivo, NSG mice; conditions: verteporfin 50 mg/kg i.p. three times a week; S3I-201 5 mg/kg i.p. every day
Description: For therapeutic experiments, 4- to 5-week-old NOD/SCID/IL2Ry−/− (NSG) mice were obtained from the Johns Hopkins Medical Institute's (Baltimore, MD) animal care facility. We injected H1299 cells (1×106) and H1437 cells (1×106), which were suspended in the mixture as described above, subcutaneously into both flanks. For the patient-derived xenograft (PDX) models, 13 PDX blocks (CTG0162, 0178, 0502, 0848, 1309, 1351, 1358, 1361, 1762, 1885, 2017, 2481, and 2708) were obtained from Champion Oncology. All these PDXs were established from primary lung adenocarcinoma tumors. The tumor tissues were cut into 4×2 mm pieces and implanted in the subcutaneous spaces of both flanks. When tumor volumes reached to 200+50 mm3, mice were randomly assigned to six experimental groups [control, chemo (cisplatin+gemcitabine), chemo+verteporfin, chemo+S3I-201, “all” (cisplatin+gemcitabine+verteporfin+S3I-201), and verteporfin+S3I-201] at 5 mice per group. Cisplatin (Sigma-Aldrich; #P4394), gemcitabine (Medkoo; #100410), S3I-201 (MedKoo; #202541), and verteporfin (Sigma-Aldrich; #1711461) were used to treat the mice. Cisplatin (2.5 mg/kg) and gemcitabine (120 mg/kg) were administrated via intraperitoneal injection once a week (22). […] Each tumor volume was measured every 3 days. Therapeutic efficacy was evaluated from percentage change of the tumor volume compared with the tumor size before treatment.

H1299 and H1437 cells = experiment: Immunoblotting of YAP1, STAT3 and pSTAT3 after drug treatment; type: cell-based, human
Method: Western blotting. Cells were dissolved in RIPA buffer (Thermo Fisher Scientific) supplemented with proteinase inhibitor and phosphatase inhibitor cocktails (Roche, Mannheim, Germany). After total protein lysate was electrophoretically transferred onto PVDF membrane, the membrane was blocked with 5% skim milk in 0.05% TBS-Tween buffer and incubated at 4° C. overnight with a primary antibody specific to each protein. The membrane was then probed with an appropriate secondary antibody (Cell Signaling Technology, Danvers, USA). β-actin served as an endogenous control. The primary antibodies and dilution ratios were β-actin (Sigma-Aldrich; #A2228; 1:5000), NANOG (D73G4; Cell Signaling Technology; #4903; 1:1000), OCT4 (D705Z; Cell Signaling Technology; #75463; 1:500), SOX2 (EPR3131; Abcam, Cambridge, UK; #ab92494; 1:500), STAT3 (124H6; Cell Signaling Technology; #9139; 1:2000), pSTAT3 (D3A7; Cell Signaling Technology; #9145; 1:1000) and YAP1 (EP1674Y; Abcam, #ab52771; 1:2000).
To determine doses of these drugs that are effective for pathway inhibition, H1299 and H1437 cells were treated with verteporfin or S3I-201 for 72 hours.

[1] = used clinically, or in clinical trials; cited from earlier work
YAP1 = YAP1 (Homo sapiens, UniProt P46937); conditions: cited from earlier work
colorectal cancer cells = conditions: in mice and in cells cultured under hypoxic and nutrient-deprived conditions; cited from earlier work

Chain of YAP1 (P46937 whole entry, species assumed): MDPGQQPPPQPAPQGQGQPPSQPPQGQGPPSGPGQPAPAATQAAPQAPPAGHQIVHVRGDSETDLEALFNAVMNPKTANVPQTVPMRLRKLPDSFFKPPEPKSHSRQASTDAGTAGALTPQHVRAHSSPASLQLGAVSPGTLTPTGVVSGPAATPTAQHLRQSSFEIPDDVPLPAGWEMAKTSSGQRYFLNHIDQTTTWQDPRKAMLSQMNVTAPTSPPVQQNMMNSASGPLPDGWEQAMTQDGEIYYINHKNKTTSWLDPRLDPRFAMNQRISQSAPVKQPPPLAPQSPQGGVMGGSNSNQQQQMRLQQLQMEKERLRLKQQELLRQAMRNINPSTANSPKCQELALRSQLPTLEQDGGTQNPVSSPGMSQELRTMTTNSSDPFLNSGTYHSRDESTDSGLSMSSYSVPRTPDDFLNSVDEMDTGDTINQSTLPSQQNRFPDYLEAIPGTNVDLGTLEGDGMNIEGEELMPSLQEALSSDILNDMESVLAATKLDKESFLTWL

C=Cc1c(C)c2cc3nc(cc4[nH]c(cc5nc(cc1[nH]2)C(C)=C5CCC(=O)O)c(CCC(=O)OC)c4C)[C@@]1(C)C3=CC=C(C(=O)OC)[C@H]1C(=O)OC [verteporfin, 3-[(23S,24R)-14-ethenyl-5-(3-methoxy-3-oxopropyl)-22,23-bis(methoxycarbonyl)-4,10,15,24-tetramethyl-25,26,27,28-tetraazahexacyclo[16.6.1.13,6.18,11.113,16.019,24]octacosa-1,3,5,7,9,11(27),12,14,16,18(25),19,21-dodecaen-9-yl]propanoic acid]
expression level of FABP4 (MB49, UPPL595 and BBN975): significantly downregulated
tumor growth (H1299 xenografts): inhibited growth
STAT3 oligomerization (high molecular weight complexes) (H1299 and H1437 cells): STAT3 oligomerization upon verteporfin treatment in a dose dependent manner; also recorded: high molecular weight complexes (regions surrounded by circles) were increased
YAP1 and total STAT3 protein expression (H1299 and H1437 cells): both YAP1 and total STAT3 expressions were suppressed
YAP1 and total STAT3 protein expression (H1299 and H1437 cells; listed as Verteporfin): suppressed YAP1 and STAT3 expressions in H1299 and H1437 cells in a concentration dependent manner
adverse effects [1]: few severe adverse effects were reported
binding to YAP1 and YAP1-TEAD2 interaction (YAP1): bind to YAP1 and change its conformation, thereby abrogating its interaction with TEAD2
killing of colorectal cancer cells by protein oligomer accumulation (colorectal cancer cells): selectively killed colorectal cancer cells
